Reference: patent publication US11779531B2, “Anti-inflammatory peptides, and uses thereof” (NURITAS LIMITED, priority 2015, dated 2023)

System: TNF-α secretion in THP1 cells
Test: TNF-α secretion by LPS-stimulated THP-1 differentiated cells after synthetic peptide treatment (Biolegend ELISA)
Format: cell-based, human
Settings: THP-1 cells, synthetic peptide 100, 10 or 1 ng/ml for 24 h, then 10 ng/ml LPS 5 h; vs untreated control; concentration behind the value not stated
Protocol: FIGS. 1 to 18: The effect of eighteen synthetic peptides of the invention on TNF-secretion in THP1 cells. All experiments were prepared in duplicate on three plates (6 wells/conditions). Significance was calculated using Students t-test (*p<0.05 compared to control, **p<0.01 compared to control, *** p<0.001 compared to control). The figures correspond with the following SEQ ID Nos: FIG. 1 is SEQ ID NO: 339, FIG. 2 is SEQ ID NO: 352, FIG. 3 is SEQ ID NO: 341, FIG. 4 is SEQ ID NO: 351, FIG. 5 is SEQ ID NO: 144, FIG. 6 is SEQ ID NO: 93, FIG. 7 is SEQ ID NO: 320, FIG. 8 is SEQ ID NO: 92, FIG. 9 is SEQ ID NO: 75, FIG. 10 is SEQ ID NO: 76, FIG. 11 is SEQ ID NO: 349, FIG. 12 is SEQ ID NO: 350, FIG. 13 is SEQ ID NO: 105, FIG. 14 is SEQ ID NO: 177, FIG. 15 is SEQ ID NO: 345, FIG. 16 is SEQ ID NO: 353, FIG. 17 is SEQ ID NO: 344, FIG. 18 is SEQ ID NO: 346.
FIGS. 26 to 28. The effect of three synthetic peptides of the invention on TNF-secretion in THP1 cells. All experiments were prepared in duplicate on three plates (6 wells/conditions). Significance was calculated using Students t-test (*p<0.05 compared to control, **p<0.01 compared to control, ***p<0.001 compared to control). The figures correspond with the following SEQ ID Nos: FIG. 26 is SEQ ID NO: 85, FIG. 27 is SEQ ID NO: 91, FIG. 28 is SEQ ID NO: 420.
TNF-α is secreted by macrophages in response to stimulation by endotoxins such as lipopolysaccharides (LPS). TNF-α is thought to be involved in systemic inflammation and dysregulation of TNF-α production is thought to be involved in many diseases. The Biolegend assay is a sandwich ELISA kit that is designed for the accurate quantitation of human TNF-α from cell culture supernatant, serum or plasma.
THP-1 monocytes were seeded in a 96 well plate at 10,000 cells per well in RPMI containing 10% fetal calf serum (FCS), 1% Pen/strep, 1% L-glutamine, 100 nM PMA and allowed to differentiated for 72 h prior to experimentation.
Following differentiation the cells were incubated with 100 ng/ml, 10 ng/ml or 1 ng/ml synthetic peptide for 24 h respectively.
Following treatment the cells were stimulated with 10 ng/ml LPS for 5 h and the quantity of TNF-α in the supernatant determined using the Biolegend assay ELISA kit.
Results were calculated as a percentage of the untreated control. An increase in optical density reading indicates greater quantity of TNF-a release into cell culture supernatant.
All experiments were prepared in duplicate on three plates (6 wells/conditions). Significance was calculated using Students t-test (*p<0.05 compared to control, **p<0.01 compared to control, ***p<0.001 compared to control).

Q: With 75 (LSSGDVFVIPAGHPVAVK) [compound 75] as the substance, how does the “TNF-α DECREASE” value read?
A: The value was 11%.

Q: Which “TNF-α DECREASE” value does the source give for 76 (EDDEEEEQGEEEINK) [compound 76] here?
A: The value was 9%.

Q: With “85 (SKPHTIFLPQHTDADYILVVLSGK) [compound 85]” as the substance, how does the “TNF-α DECREASE” value read?
A: The value was 80%.

Q: Which “TNF-α DECREASE” value does the source give for “91 (PGQLQSFLLSGNQNQQNYLSGFSK) [compound 91]” here?
A: Its value is 80%.

Q: Which “TNF-α DECREASE” value does the source give for “92 (FFELTPEKNQQLQDLDLFVNSVDLK) [compound 92]” here?
A: Its value is 13%.

Q: 93 (QLEELSK) [compound 93] was tested. Which “TNF-α DECREASE” value did it give?
A: Its value is 14%.

Q: How did the “TNF-α DECREASE” value turn out when 105 (PSYEKQEDEEEKQK) [compound 105] was run?
A: The value was 9%.

Q: 144 (SIFRALPND) [compound 144] was tested. Which “TNF-α DECREASE” value did it give?
A: The value was 16%.

Q: How did the “TNF-α DECREASE” value turn out when 320 (RGPQQYAEWQINE) [compound 320] was run?
A: Its value is 13%.

Q: For 339 (QSFLLSGNQNQQ) [compound 339], which “TNF-α DECREASE” value is on record?
A: Its value is 26%.

Q: For 341 (RGPQQYA) [compound 341], which “TNF-α DECREASE” value is on record?
A: The value was 21%.

Q: 344 (GYYGEQQQQPGMTR) [compound 344] was tested. Which “TNF-α DECREASE” value did it give?
A: Its value is 20%.

Q: For 345 (IDGYDTPVEGR) [compound 345], which “TNF-α DECREASE” value is on record?
A: Its value is 23%.

Q: With 346 (NGVLRPGQL) [compound 346] as the substance, how does the “TNF-α DECREASE” value read?
A: Its value is 18%.

Q: For 349 (TVFDGVLRPGQL) [compound 349], which “TNF-α DECREASE” value is on record?
A: The value was 6%.

Q: How did the “TNF-α DECREASE” value turn out when 351 (HGPVEMPYTLLYPSSK) [compound 351] was run?
A: Its value is 18%.

Q: With 352 (LDALEPDNR) [compound 352] as the substance, how does the “TNF-α DECREASE” value read?
A: The value was 23%.

Q: For 420 (RLQSQNDQRGEIIHVK) [compound 420], which “TNF-α DECREASE” value is on record?
A: The value was 80%.
